EP0745595A1, “3-(3-Aryloxyphenyl)-1-(substituted methyl)-s-triazine-2,4,6-oxo or thiotrione herbicidal agents” (American Cyanamid Company, priority 1995, dated 1996)

Legend:
Format in all cases: in vivo
ZEA MAYS L. [1] = experiment: Postemergence herbicidal evaluation, ZEAMX (Corn, Field)
Summary of the method: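 Corn seedlings were raised in jiffy flats for roughly two weeks, then sprayed postemergence with the test material dispersed in 50/50 acetone/water containing 0.5% TWEEN®20 surfactant, using a nozzle at 40 psi. Plants were kept on greenhouse benches under standard care and visually rated on a 0-9 scale four to five weeks after treatment.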

[2] = system: GLYCINE MAX(L) MERR. CV. WILLIAMS; experiment: Postemergence herbicidal evaluation, GLXMAW (Soybean, Williams); set-up: key to GLXMAW rating / Herbicidal effect rating, GLXMAW / GLXMAW: 0-9 visual rating scale vs untreated control
Summary of the method: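 Soybean seedlings (Williams) were raised in jiffy flats for roughly two weeks, then sprayed postemergence through a nozzle at 40 psi with test compound dispersed in 50/50 acetone/water containing 0.5% TWEEN®20. Treated plants were kept on greenhouse benches under normal care and visually rated on a 0-9 scale four to five weeks later.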

GALIUM APARINE = experiment: Preemergence herbicidal evaluation, GALAP (Galium); conditions: for GALAP herbicidal rating: rated four to five weeks after treatment
Summary of the method: (§1)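 First, seeds in potting soil are sown atop soil in cups. Next, the surface is sprayed with test compound in aqueous acetone at roughly 0.125 to 0.50 kg per hectare. After four to five weeks of greenhouse care, each cup is scored 0-9 against a control.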

[…], PRESL. = Preemergence weed control under flooded paddy conditions, MOOVA (Monochoria); conditions: for Herbicidal effect rating, MOOVA: preemergence, 3-4 weeks after treatment; for MOOVA: pre-weed
Summary of the method: (§2)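 Seeds or propagules sown in top 0.5 cm of silt loam in undrained containers, flooded 1.5 to 3 cm throughout. Compounds in aqueous/acetone 50/50 v/v pipetted into flood water at about 0.5, 0.25, 0.125 and 0.063 kg/ha. Visual 0-9 rating versus control after three to four weeks in greenhouse.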

[3] = system: ORYZA SATIVA, L. TEBONNET; experiment: Postemergence herbicidal evaluation, ORYSAT (Rice, Tebonnet); set-up: key: 0-9 visual rating scale vs untreated control
Summary of the method: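 Rice (Tebonnet) seedlings raised in jiffy flats for roughly two weeks were sprayed postemergence at 40 psi with compound dispersed in 50/50 acetone/water containing 0.5% TWEEN®20. The plants were then kept on greenhouse benches under standard care and visually scored on a 0-9 scale against a control four to five weeks after treatment.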

[4] = system: ECHINOCHLOA ORYZOIDES (ARD.)FRITSCH; experiment: Preemergence weed control under flooded paddy conditions, ECHORC (Watergrass (Calif.)); conditions: for Herbicidal effect rating, ECHORC: preemergence, 3-4 weeks after treatment; for ECHORC: pre-weed
Summary of the method: as §2

[5] = system: GLYCINE MAX(L) MERR. CV. WILLIAMS; experiment: Preemergence herbicidal evaluation, GLXMAW (Soybean, Williams); conditions: Rate 0.500 kg/ha, rated four to five weeks after treatment
Summary of the method: as §1

SAGITTARIA PYGMAEA, L. = experiment: Preemergence weed control under flooded paddy conditions, SAGPY (Arrowhead (Pygmaea)); conditions: 0.500 kg/ha, preemergence, 3-4 weeks after treatment
Summary of the method: as §2

[6] = system: CYPERUS SEROTINUS, ROTTB.; experiment: Preemergence weed control under flooded paddy conditions, CYPSE (Flatsedge); conditions: 0.500 kg/ha, preemergence, 3-4 weeks after treatment
Summary of the method: as §2

CYPERUS IRIA = experiment: Preemergence weed control under flooded paddy conditions, CYPIR (Rice Flatsedge); conditions: 0.500 kg/ha, preemergence, 3-4 weeks after treatment
Summary of the method: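 Seeds or propagating organs of rice flatsedge were planted in the top 0.5 cm of silt loam soil in 32 oz. plastic containers, 10.5 cm across and without drainage holes. Water was kept 1.5 to 3 cm above the soil throughout. Treated containers were kept on greenhouse benches, and herbicidal effect was visually rated on a 0-9 scale against a control.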

ZEA MAYS L. [7] = experiment: Preemergence herbicidal evaluation, ZEAMX (Corn, Field); conditions: Rate 0.500 kg/ha, rated four to five weeks after treatment
Summary of the method: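 Corn (Zea mays) seeds were mixed with potting soil and planted on about one inch of soil in pint cups, then treated preemergence. Cups were kept on greenhouse benches, watered and maintained conventionally, and after four to five weeks were visually rated on a 0-9 scale versus an untreated control.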

CASSIA OBTUSIFOLIA, L. = experiment: Preemergence herbicidal evaluation, CASOB (Sicklepod); conditions: Rate 0.500 kg/ha, rated four to five weeks after treatment
Summary of the method: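 Seeds of various monocot and dicot plants, including sicklepod, were each mixed with potting soil and sown on roughly one inch of soil in separate pint cups for preemergence testing. Treated cups were kept on greenhouse benches, watered and maintained conventionally. Four to five weeks after treatment, each cup was visually rated on a 0-9 scale against a control.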

## COC(=O)Cn1c(=O)n(C)c(=O)n(-c2cc(Oc3c(F)cc(C(F)(F)F)cc3Cl)ccc2[N+](=O)[O-])c1=O [Compound 16, Methyl 3-{5-[(2-chloro-α,α,α,6-tetrafluoro-p-tolyl)oxy]-2-nitrophenyl}tetrahydro-5-methyl-2,4,6-trioxo-s-triazine-1(2H)-acetate]
ZEA MAYS L. [1]; Rate 0.008 kg/ha
  ZEAMX: 2.0
ZEA MAYS L. [1]; Rate 0.016 kg/ha
  ZEAMX: 2.4
ZEA MAYS L. [1]; Rate 0.031 kg/ha
  ZEAMX: 3.0
ZEA MAYS L. [1]; Rate 0.063 kg/ha
  ZEAMX: 3.4
ZEA MAYS L. [1]; Rate 0.125 kg/ha
  ZEAMX: 4.2
[2]; Rate 0.008 kg/ha
  GLXMAW: 3.3
[2]; Rate 0.016 kg/ha
  GLXMAW: 3.8
[2]; Rate 0.031 kg/ha
  GLXMAW: 4.6
[2]; Rate 0.063 kg/ha
  GLXMAW: 5.1
[2]; Rate 0.125 kg/ha
  GLXMAW: 5.6
GALIUM APARINE; Rate 0.031 kg/ha
  GALAP: 9.0
GALIUM APARINE; Rate 0.063 kg/ha
  GALAP: 9.0
GALIUM APARINE; Rate 0.125 kg/ha
  GALAP: 9.0
  GALAP herbicidal rating: 9.0
GALIUM APARINE; Rate 0.250 kg/ha
  GALAP: 9.0
  GALAP herbicidal rating: 9.0
GALIUM APARINE; Rate 0.500 kg/ha
  GALAP herbicidal rating: 9.0
[…], PRESL.; 0.063 kg/ha
  Herbicidal effect rating, MOOVA: 9.0
[…], PRESL.; 0.125 kg/ha
  Herbicidal effect rating, MOOVA: 9.0
[…], PRESL.; 0.250 kg/ha
  Herbicidal effect rating, MOOVA: 9.0
[…], PRESL.; 0.500 kg/ha
  Herbicidal effect rating, MOOVA: 9.0
[…], PRESL.; Rate 0.031 kg/ha
  MOOVA: 9.0
[…], PRESL.; Rate 0.063 kg/ha
  MOOVA: 9.0
[…], PRESL.; Rate 0.125 kg/ha
  MOOVA: 9.0
[…], PRESL.; Rate 0.250 kg/ha
  MOOVA: 9.0
[3]; Rate 0.008 kg/ha
  ORYSAT: 4.0
[3]; Rate 0.016 kg/ha
  ORYSAT: 6.0
[3]; Rate 0.031 kg/ha
  ORYSAT: 5.3
[3]; Rate 0.063 kg/ha
  ORYSAT: 5.3
[3]; Rate 0.125 kg/ha
  ORYSAT: 5.8
[4]; 0.063 kg/ha
  Herbicidal effect rating, ECHORC: 9.0
[4]; 0.125 kg/ha
  Herbicidal effect rating, ECHORC: 9.0
[4]; 0.250 kg/ha
  Herbicidal effect rating, ECHORC: 9.0
[4]; 0.500 kg/ha
  Herbicidal effect rating, ECHORC: 9.0
[4]; Rate 0.031 kg/ha
  ECHORC: 9.0
[4]; Rate 0.063 kg/ha
  ECHORC: 9.0
[4]; Rate 0.125 kg/ha
  ECHORC: 9.0
[4]; Rate 0.250 kg/ha
  ECHORC: 9.0

## COC(=O)Cn1c(=O)n(C)c(=O)n(-c2cc(Oc3cc(Cl)cc(Cl)c3)ccc2[N+](=O)[O-])c1=O [Compound 35, Methyl 3-[5-(3,5-dichlorophenoxy)-2-nitrophenyl]tetrahydro-5-methyl-2,4,6-trioxo-s-triazine-1(2H)-acetate]
ZEA MAYS L. [1]; Rate 0.125 kg/ha
  ZEAMX rating: 1.0
ZEA MAYS L. [1]; Rate 0.250 kg/ha
  ZEAMX rating: 1.0
ZEA MAYS L. [1]; Rate 0.500 kg/ha
  ZEAMX rating: 1.0
[5]
  GLXMAW herbicidal rating: 1.0
SAGITTARIA PYGMAEA, L.
  Herbicidal effect rating, SAGPY: 0.0
GALIUM APARINE; Rate 0.500 kg/ha
  GALAP herbicidal rating: 0.0
[6]
  Herbicidal effect rating, CYPSE: 0.0
CYPERUS IRIA
  Herbicidal effect rating, CYPIR: 0.0
ZEA MAYS L. [7]
  ZEAMX herbicidal rating: 0.0
[…], PRESL.; 0.500 kg/ha
  Herbicidal effect rating, MOOVA: 0.0
CASSIA OBTUSIFOLIA, L.
  CASOB herbicidal rating: 0.0
[4]; 0.500 kg/ha
  Herbicidal effect rating, ECHORC: 0.0

## COC(=O)Cn1c(=O)n(C)c(=O)n(-c2cc(Oc3ccccn3)ccc2[N+](=O)[O-])c1=O [Compound 38, Methyl tetrahydro-3-methyl-5-[2-nitro-5-(2-pyridyloxy)phenyl]-2,4,6-trioxo-s-triazine-1(2H)-acetate]
ZEA MAYS L. [1]; Rate 0.500 kg/ha
  ZEAMX rating: 0.0
[2]; Rate 0.500 kg/ha
  GLXMAW rating: 0.5
[5]
  GLXMAW herbicidal rating: 1.0
SAGITTARIA PYGMAEA, L.
  Herbicidal effect rating, SAGPY: 0.0
GALIUM APARINE; Rate 0.500 kg/ha
  GALAP herbicidal rating: 0.0
[6]
  Herbicidal effect rating, CYPSE: 0.0
CYPERUS IRIA
  Herbicidal effect rating, CYPIR: 0.0
ZEA MAYS L. [7]
  ZEAMX herbicidal rating: 2.0
[…], PRESL.; 0.500 kg/ha
  Herbicidal effect rating, MOOVA: 0.0
[3]; Rate 0.500 kg/ha
  ORYSAT rating: 0.0
CASSIA OBTUSIFOLIA, L.
  CASOB herbicidal rating: 0.0
[4]; 0.500 kg/ha
  Herbicidal effect rating, ECHORC: 0.0
